Source: paper PMC11189555, “Aryl amino acetamides prevent Plasmodium falciparum ring development via targeting the lipid-transfer protein PfSTART1” (Nature Communications, 2024)
Several values for one entry are separate records, joined by “and”; a condition that tells them apart may be missing. Identical values can stand only once. Like-named read-outs stand apart in the source and are kept apart here.

System: 3D7 P. falciparum parasites
Experiment: Growth inhibition assay (72 h, LDH activity)
Type: cell-based, Plasmodium falciparum
Details: for inhibition / EC50: Plasmodium falciparum; for inhibition: 3D7, 3D7, read-out: NORMALISED (growth inhibition, LDH absorbance)
Protocol: Parasite growth assays with inhibitory compounds were performed as per[11] and are fully described in the Supplementary Information. […]
Growth inhibition assays. Synchronised ring-stage parasites (0.3-0.6% parasitemia, 2% haematocrit) were grown for 72 h in a serial-dilution of the compound under […]
and compound 4. Note that M-833 was first purchased from MolPort (MolPort -002-267-916) then made in-house at WEHI: the differences observed in EC50s across experiments are attributed to the different batches of M -833. For some experiments, 0, 0.25 or 2.5 mM of glucosamine (GlcN) was also added. Experiments were set up in technical duplicates or triplicates. Following a freeze -thaw cycle, lactate dehydrogenase (LDH) activity was assessed as an indicator of parasite growt h 5. 30 μL of parasite culture was incubated for 30 min in the dark with 75 μL Malstat mixture (0.1 M Tris pH 9.0, 20 g/L lactic acid, pH 7.5, 0.2% Triton-X100, 0.5 g/L acetylpyridine adenine dinucleotide (APAD, Sigma), 200 μg/mL nitroblue tetrazolium (NBT; Sigma), 1 μg/mL phenozine ethosulfate (PES; Sigma)). Absorbance was then measured at 650 nm, transformed using the formula below, plotted against the logarithm of the concentrations, and a non-linear regression (log(inhibitor) vs. response, variable slope) was calculated using GraphPad Prism to assess the half-inhibitory […]
Growth inhibition % = (1 − average(sample)− average(uRBC)) ∗ 100 […]
The DMSO samples were also used to assess growth of parasite in the presence of 0.25 and 2.5 mM GlcN (normalised by DMSO in 0 mM GlcN). […]

SMILES: CC(C)(Nc1ccc(Cl)c(S(=O)(=O)N2CCOCC2)c1)C(=O)Nc1ccc(F)c(Cl)c1 [W-991]
- NORMALISED (growth inhibition, LDH absorbance) (3D7, 2.5 mM GlcN, dilution point 5 of 10 from starting concentration 100 nM): 58.1932
- NORMALISED (growth inhibition, LDH absorbance) (3D7, 2.5 mM GlcN, dilution point 6 of 10 from starting concentration 100 nM): 27.2129
- NORMALISED (growth inhibition, LDH absorbance) (3D7, 2.5 mM GlcN, dilution point 8 of 10 from starting concentration 100 nM): 5.32 and 8.1730
- (av-uRBC) / (DMSO-uRBC) x100 (3D7, conc. 0.0762079 nM, Biological replicate 1 (2021-10-25)): 91.3585
- (av-uRBC) / (DMSO-uRBC) x100 (3D7, conc. 0.0762079 nM, Biological replicate 2 (2021-11-03)): 90.9909
- (av-uRBC) / (DMSO-uRBC) x100 (3D7, conc. 0.0762079 nM, Biological replicate 3 (2021-11-11)): 91.0985
- (av-uRBC) / (DMSO-uRBC) x100 (3D7, conc. 0.228624 nM, Biological replicate 1 (2021-10-25)): 79.3619
- (av-uRBC) / (DMSO-uRBC) x100 (3D7, conc. 0.228624 nM, Biological replicate 2 (2021-11-03)): 81.2617
- (av-uRBC) / (DMSO-uRBC) x100 (3D7, conc. 0.228624 nM, Biological replicate 3 (2021-11-11)): 73.154
- (av-uRBC) / (DMSO-uRBC) x100 (3D7, conc. 0.685871 nM, Biological replicate 1 (2021-10-25)): 42.85
- (av-uRBC) / (DMSO-uRBC) x100 (3D7, conc. 0.685871 nM, Biological replicate 2 (2021-11-03)): 72.8867
- (av-uRBC) / (DMSO-uRBC) x100 (3D7, conc. 0.685871 nM, Biological replicate 3 (2021-11-11)): 42.2112
- (av-uRBC) / (DMSO-uRBC) x100 (3D7, conc. 2.05761 nM, Biological replicate 1 (2021-10-25)): 12.3757
- (av-uRBC) / (DMSO-uRBC) x100 (3D7, conc. 2.05761 nM, Biological replicate 2 (2021-11-03)): 18.386
- (av-uRBC) / (DMSO-uRBC) x100 (3D7, conc. 2.05761 nM, Biological replicate 3 (2021-11-11)): 9.397
- (av-uRBC) / (DMSO-uRBC) x100 (3D7, conc. 6.17284 nM, Biological replicate 1 (2021-10-25)): 9.357
- (av-uRBC) / (DMSO-uRBC) x100 (3D7, conc. 6.17284 nM, Biological replicate 2 (2021-11-03)): 11.686
- (av-uRBC) / (DMSO-uRBC) x100 (3D7, conc. 6.17284 nM, Biological replicate 3 (2021-11-11)): 6.494
- (av-uRBC) / (DMSO-uRBC) x100 (3D7, conc. 18.5185 nM, Biological replicate 1 (2021-10-25)): 9.8
- (av-uRBC) / (DMSO-uRBC) x100 (3D7, conc. 18.5185 nM, Biological replicate 2 (2021-11-03)): 10.8954
- (av-uRBC) / (DMSO-uRBC) x100 (3D7, conc. 18.5185 nM, Biological replicate 3 (2021-11-11)): 6.2108
- (av-uRBC) / (DMSO-uRBC) x100 (3D7, conc. 55.5556 nM, Biological replicate 1 (2021-10-25)): 9.035
- (av-uRBC) / (DMSO-uRBC) x100 (3D7, conc. 55.5556 nM, Biological replicate 2 (2021-11-03)): 11.005
- (av-uRBC) / (DMSO-uRBC) x100 (3D7, conc. 55.5556 nM, Biological replicate 3 (2021-11-11)): 5.108
- (av-uRBC) / (DMSO-uRBC) x100 (3D7, conc. 166.667 nM, Biological replicate 1 (2021-10-25)): 9.2782
- (av-uRBC) / (DMSO-uRBC) x100 (3D7, conc. 166.667 nM, Biological replicate 2 (2021-11-03)): 9.854
- (av-uRBC) / (DMSO-uRBC) x100 (3D7, conc. 166.667 nM, Biological replicate 3 (2021-11-11)): 4.764
- (av-uRBC) / (DMSO-uRBC) x100 (3D7, conc. 500 nM, Biological replicate 1 (2021-10-25)): 10.7733
- (av-uRBC) / (DMSO-uRBC) x100 (3D7, conc. 500 nM, Biological replicate 2 (2021-11-03)): 10.7389
- (av-uRBC) / (DMSO-uRBC) x100 (3D7, conc. 500 nM, Biological replicate 3 (2021-11-11)): 3.985
- improvement in parasite activity on replacing the aryl oxy of compound 3 with an amino group (EC50 based): 20 fold
- inhibition (0.25 mM GlcN, dilution point 1 of 10, starting concentration 100 nM): 94.1%
- inhibition (0.25 mM GlcN, dilution point 2 of 10 from starting concentration 100 nM): 94.3%
- inhibition (0.25 mM GlcN, dilution point 3 of 10 from starting concentration 100 nM): 95.3%
- inhibition (0.25 mM GlcN, dilution point 4 of 10 from starting concentration 100 nM): 91.5%
- inhibition (2.5 mM GlcN, dilution point 1 of 10, starting concentration 100 nM): 89.4%
- inhibition (2.5 mM GlcN, dilution point 2 of 10 from starting concentration 100 nM): 91.3%
- inhibition (2.5 mM GlcN, dilution point 3 of 10 from starting concentration 100 nM): 88.4%
- inhibition (2.5 mM GlcN, dilution point 4 of 10 from starting concentration 100 nM): 86.4%
- inhibition (2.5 mM GlcN, dilution point 5 of 10 from starting concentration 100 nM): 65.7%
- inhibition (2.5 mM GlcN, dilution point 6 of 10 from starting concentration 100 nM): 40.2%
- EC50 (3D7, 72 h, Supplementary Table 1, 3D7, 72 h, read-out: EC50): 0.72 nM
- EC50 (3D7, Fig 4C, 3D7, 0 mM GlcN, n = 3, read-out: EC50 W-991 (95% confidence interval)): 0.942 nM
- EC50 (3D7, Fig 4C, 3D7, 0.25 mM GlcN, n = 3, read-out: EC50 W-991 (95% confidence interval)): 0.908 nM
- EC50 (3D7, Fig 4C, 3D7, 2.5 mM GlcN, n = 3, read-out: EC50 W-991 (95% confidence interval)): 0.787 nM
- EC50 (3D7, text on structure activity relationship (Fig 4A), read-out: EC50, antiparasitic activity): 7 nM
- effect of GlcN addition on EC50 (control 3D7, Fig 4C): did not change the EC50
